From ChEMBL document CHEMBL1201862, “PubChem BioAssay data set” (2004)
Activity calls are given as the source filed them.

Assays:
[1] = target: Voltage-gated inwardly rectifying potassium channel KCNH2 (Homo sapiens, UniProt Q12809); conditions: Potency;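 also: confirmatory quantitative high-throughput screen measuring inhibition of hERG channel activity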
Prothrombin = Prothrombin (Homo sapiens, UniProt P00734); experiment: Thrombin 1536 HTS Dose Response Confirmation. [Related pubchem assays: 1046 (Thrombin 1536 HTS; hits were confirmed in this assay)]; format: functional
[2] = target: T1, Heat shock factor protein 1 (Mus musculus, UniProt P38532); experiment: enhancement of HSF1-driven luciferase signal – cell-based, NIH3T3, luminescence, dose retest, confirmation (AID 435004); format: functional;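 also: stress induced by proteasome inhibitor MG132 added 30 min after compound; luciferase reporter driven by HSF1 response element in NIH3T3 cells; actives raise luminescence as potentiators of the MG132 stress response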
T1 sequence (P38532 whole entry): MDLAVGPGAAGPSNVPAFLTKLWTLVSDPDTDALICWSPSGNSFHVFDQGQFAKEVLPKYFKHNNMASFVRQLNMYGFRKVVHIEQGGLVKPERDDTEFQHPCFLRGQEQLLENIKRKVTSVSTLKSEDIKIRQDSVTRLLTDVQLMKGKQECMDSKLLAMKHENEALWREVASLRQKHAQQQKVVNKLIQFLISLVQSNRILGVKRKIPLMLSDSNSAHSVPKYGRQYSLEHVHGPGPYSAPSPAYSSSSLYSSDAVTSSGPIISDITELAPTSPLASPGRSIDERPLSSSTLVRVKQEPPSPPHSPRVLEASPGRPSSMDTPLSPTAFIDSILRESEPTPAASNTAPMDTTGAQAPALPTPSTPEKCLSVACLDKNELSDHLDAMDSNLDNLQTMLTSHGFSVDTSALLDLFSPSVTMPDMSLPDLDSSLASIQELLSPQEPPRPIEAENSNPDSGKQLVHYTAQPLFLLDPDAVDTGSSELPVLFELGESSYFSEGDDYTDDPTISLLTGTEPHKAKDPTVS

HeLa = experiment: ATP-based viability loss in HeLa cells – cell-based, CellTiter-Glo luminescence, cherry-pick samples, cytotoxicity control for MITF activator project, dose response (AID 540259); format: functional; conditions: Homo sapiens
[3] = Trypanosoma cruzi growth suppression in host cells – NIH3T3 host cells, beta-gal luminescence, confirmation (AID 2044); format: functional, cell-based;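 also: intracellular parasites grown in NIH/3T3 mouse fibroblasts as host cells; luminescent beta-galactosidase reporter signal from transgenic T. cruzi replicating inside host cells; inhibitors lower the luminescence signal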
[4] = NIH3T3 cell viability loss – ATP luminescence, mouse fibroblasts, counter-screen, dose response (AID 2010); format: functional, cell-based;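 also: cells exposed to compound for about 90 hours before reading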
Estrogen receptor = target: T2, Estrogen receptor (Homo sapiens, UniProt P03372);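 also: potency for inhibiting coactivator peptide recruitment to the receptor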
T2 sequence (P03372 whole entry): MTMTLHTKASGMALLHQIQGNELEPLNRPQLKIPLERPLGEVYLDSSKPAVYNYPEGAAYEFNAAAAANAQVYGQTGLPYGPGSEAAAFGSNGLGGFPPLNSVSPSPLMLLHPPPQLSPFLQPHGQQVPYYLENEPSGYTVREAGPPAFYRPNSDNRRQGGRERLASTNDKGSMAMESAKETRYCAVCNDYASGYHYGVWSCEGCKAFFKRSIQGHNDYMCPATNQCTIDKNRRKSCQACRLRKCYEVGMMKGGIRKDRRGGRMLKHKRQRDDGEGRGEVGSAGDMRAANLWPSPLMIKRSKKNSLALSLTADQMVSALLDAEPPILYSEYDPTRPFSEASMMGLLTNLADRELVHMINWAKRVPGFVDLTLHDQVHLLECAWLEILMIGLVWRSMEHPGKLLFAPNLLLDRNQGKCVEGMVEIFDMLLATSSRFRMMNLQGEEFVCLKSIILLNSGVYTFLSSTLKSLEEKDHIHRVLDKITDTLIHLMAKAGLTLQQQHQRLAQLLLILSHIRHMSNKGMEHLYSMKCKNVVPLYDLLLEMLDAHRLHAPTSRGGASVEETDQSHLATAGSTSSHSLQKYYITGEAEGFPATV

[5] = target: T3, Polyadenylate-binding protein 1 (Homo sapiens, UniProt P11940); experiment: MLLE binding blockers, Cy5 peptide tracer – biochemical, fluorescence polarization, Cy5-PAM2 peptide, secondary, miRNA deadenylation inhibitor project, dose response (AID 602260); format: functional; conditions: read-out: IC50_Mean
T3 sequence (P11940 whole entry, the tested form may be a part): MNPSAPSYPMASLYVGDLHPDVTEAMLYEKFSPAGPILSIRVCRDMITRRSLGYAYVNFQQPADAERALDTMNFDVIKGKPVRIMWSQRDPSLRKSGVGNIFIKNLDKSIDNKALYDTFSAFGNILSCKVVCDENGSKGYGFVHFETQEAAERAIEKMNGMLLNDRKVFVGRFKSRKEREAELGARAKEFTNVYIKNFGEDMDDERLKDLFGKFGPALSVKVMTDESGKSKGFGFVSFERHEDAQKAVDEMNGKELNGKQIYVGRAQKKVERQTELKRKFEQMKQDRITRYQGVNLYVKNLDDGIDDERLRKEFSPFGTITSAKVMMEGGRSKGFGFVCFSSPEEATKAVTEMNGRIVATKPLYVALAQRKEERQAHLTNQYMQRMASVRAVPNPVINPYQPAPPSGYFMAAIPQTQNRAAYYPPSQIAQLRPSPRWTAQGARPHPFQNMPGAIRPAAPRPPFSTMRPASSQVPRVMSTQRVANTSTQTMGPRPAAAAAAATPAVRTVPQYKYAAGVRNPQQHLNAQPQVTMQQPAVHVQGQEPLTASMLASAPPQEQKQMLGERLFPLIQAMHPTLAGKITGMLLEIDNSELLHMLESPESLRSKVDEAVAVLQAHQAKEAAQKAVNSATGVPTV

[6] = target: T3, Polyadenylate-binding protein 1; experiment: MLLE domain peptide-binding blockers, IC50 – biochemical, fluorescence polarization, FITC-PAM2 peptide, dose response (AID 602259); format: functional; conditions: read-out: IC50_Mean
Streptokinase A = target: T4, Streptokinase A (Streptococcus pyogenes serotype M1, UniProt P10520); experiment: viability-normalized secreted streptokinase activity reduction – plasminogen activation absorbance, OD405, dose response (AID 1914); format: functional, Streptococcus pyogenes M1 GAS;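 also: secreted streptokinase activity via plasminogen activation per viability signal from cell pellet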
T4 sequence (P10520 whole entry): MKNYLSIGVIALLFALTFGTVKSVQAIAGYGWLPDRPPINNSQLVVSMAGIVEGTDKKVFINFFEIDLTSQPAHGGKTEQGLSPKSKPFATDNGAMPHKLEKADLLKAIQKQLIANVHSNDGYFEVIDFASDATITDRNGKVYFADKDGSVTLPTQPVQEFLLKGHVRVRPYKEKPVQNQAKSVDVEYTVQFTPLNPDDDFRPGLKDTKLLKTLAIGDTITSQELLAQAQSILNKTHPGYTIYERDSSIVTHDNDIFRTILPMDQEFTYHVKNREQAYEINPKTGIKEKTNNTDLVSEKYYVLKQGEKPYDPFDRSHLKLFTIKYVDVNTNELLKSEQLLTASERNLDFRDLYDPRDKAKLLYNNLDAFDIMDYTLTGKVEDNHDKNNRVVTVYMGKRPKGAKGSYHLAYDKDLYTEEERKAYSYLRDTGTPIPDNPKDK

[7] = system: Streptococcus sp. 'group A'; experiment: Streptococcus pyogenes SK(-)GAS viability under kanamycin – luminescence, BacTiterGlo, confirmation, counter-screen for streptokinase expression inhibitor project, dose response (AID 1900); format: functional, organism-based
[8] = target: T5, Histone-lysine N-methyltransferase NSD2 (Homo sapiens, UniProt O96028); format: biochemical
T5 sequence (O96028 whole entry): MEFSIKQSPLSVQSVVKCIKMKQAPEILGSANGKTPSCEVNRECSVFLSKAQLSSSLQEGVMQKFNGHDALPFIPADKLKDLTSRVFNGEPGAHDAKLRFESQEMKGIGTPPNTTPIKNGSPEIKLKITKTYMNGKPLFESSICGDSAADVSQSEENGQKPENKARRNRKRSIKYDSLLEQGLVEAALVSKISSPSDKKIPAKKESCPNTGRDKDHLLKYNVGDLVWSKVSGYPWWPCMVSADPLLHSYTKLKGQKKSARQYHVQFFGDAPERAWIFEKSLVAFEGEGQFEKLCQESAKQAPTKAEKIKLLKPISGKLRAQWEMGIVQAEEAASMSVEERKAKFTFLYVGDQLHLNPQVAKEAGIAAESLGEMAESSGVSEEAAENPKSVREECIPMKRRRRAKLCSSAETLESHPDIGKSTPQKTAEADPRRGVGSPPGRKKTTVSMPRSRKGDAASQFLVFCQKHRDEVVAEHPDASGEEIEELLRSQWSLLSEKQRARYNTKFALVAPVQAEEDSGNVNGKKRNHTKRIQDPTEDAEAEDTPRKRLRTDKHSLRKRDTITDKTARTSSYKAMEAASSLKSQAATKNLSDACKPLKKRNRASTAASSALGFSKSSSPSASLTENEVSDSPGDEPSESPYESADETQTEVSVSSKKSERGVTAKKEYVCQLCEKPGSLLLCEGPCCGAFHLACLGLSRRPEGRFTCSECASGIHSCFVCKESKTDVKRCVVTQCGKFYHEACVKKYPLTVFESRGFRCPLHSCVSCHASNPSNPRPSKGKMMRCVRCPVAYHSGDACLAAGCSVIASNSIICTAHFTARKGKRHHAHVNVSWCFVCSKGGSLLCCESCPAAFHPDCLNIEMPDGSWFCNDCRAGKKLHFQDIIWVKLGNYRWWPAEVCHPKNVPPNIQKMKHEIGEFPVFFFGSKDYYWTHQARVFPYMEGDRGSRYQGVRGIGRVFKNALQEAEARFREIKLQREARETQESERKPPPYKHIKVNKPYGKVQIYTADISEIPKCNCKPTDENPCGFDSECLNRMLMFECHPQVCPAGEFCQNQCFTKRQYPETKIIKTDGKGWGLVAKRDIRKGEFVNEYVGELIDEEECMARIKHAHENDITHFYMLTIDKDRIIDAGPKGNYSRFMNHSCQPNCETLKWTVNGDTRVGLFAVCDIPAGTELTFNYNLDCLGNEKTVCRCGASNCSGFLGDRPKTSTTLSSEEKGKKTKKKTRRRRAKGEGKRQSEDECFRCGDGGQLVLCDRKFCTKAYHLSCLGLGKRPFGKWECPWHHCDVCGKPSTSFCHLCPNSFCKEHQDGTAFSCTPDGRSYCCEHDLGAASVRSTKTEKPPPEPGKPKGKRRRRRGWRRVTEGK

Streptococcus = experiment: GAS UMAA2166 growth inhibition – luminescence, BacTiterGlo, counter-screen for streptokinase expression inhibitor project, dose response (AID 1915); format: functional, organism-based;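 also: potency for reduction of bacterial viability or growth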
[9] = blockers of bursicon-stimulated LGR2 cAMP reporter – cell-based, HEK293, CRE-luciferase reporter, cherry pick, set 2, dose response (AID 743343); format: functional;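 also: transfected cells were stimulated with diluted bursicon conditioned medium after compound addition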
[10] = toxicity toward HepG2 liver cells – cell-based, plate reader, cherry-pick, antagonist series, cytotoxicity control, dose response (AID 743416); format: functional
[11] = A549 cell cytotoxicity, dose response, cytotoxicity control, plate reader, cherry-pick, antagonist series (AID 743412); format: functional, cell-based
[12] = blockade of melanocortin 4 receptor signaling – cell-based, plate reader, cherry pick, counter-screen for LGR2 antagonist project, dose response (AID 743444); format: functional;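 also: transfected HEK 293 cells stimulated with alpha-MSH peptide; potency of inhibitors of the alpha-MSH evoked signal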

Voltage-gated inwardly rectifying potassium channel KCNH2, sequence (Q12809 whole entry): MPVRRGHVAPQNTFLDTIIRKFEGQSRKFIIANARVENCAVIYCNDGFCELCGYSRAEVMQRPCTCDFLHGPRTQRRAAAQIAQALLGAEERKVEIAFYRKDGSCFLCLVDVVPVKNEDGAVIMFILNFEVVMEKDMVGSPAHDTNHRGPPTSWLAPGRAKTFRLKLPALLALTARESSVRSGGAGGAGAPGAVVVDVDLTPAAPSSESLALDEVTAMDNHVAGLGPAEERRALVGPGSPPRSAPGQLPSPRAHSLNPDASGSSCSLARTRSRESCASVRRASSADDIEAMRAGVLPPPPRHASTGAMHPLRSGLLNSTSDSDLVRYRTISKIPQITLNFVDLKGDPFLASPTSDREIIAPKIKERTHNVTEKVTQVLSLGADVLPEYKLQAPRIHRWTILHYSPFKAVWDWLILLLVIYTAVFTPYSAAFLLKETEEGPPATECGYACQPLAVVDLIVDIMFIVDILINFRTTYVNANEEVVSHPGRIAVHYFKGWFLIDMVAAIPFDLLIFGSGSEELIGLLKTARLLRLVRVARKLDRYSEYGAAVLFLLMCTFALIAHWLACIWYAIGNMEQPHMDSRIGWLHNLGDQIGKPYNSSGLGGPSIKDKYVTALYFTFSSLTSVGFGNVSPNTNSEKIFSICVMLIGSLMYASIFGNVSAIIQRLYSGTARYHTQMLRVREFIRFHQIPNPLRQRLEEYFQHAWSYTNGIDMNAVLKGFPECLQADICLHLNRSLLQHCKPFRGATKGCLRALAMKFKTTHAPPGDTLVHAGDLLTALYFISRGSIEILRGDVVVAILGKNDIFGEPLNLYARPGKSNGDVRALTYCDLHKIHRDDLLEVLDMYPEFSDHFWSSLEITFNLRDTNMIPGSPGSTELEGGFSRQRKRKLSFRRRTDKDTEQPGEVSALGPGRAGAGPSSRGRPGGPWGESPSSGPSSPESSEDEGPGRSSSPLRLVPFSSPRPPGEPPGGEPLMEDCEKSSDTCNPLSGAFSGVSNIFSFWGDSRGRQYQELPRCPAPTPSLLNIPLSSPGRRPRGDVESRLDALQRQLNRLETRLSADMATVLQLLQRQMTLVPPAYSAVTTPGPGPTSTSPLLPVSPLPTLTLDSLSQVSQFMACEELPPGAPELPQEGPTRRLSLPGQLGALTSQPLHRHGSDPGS

## [H][C@]12[N@]3CC=C[C@@]1(CC)[C@@H](OC(C)=O)[C@](O)(C(=O)OC)C1N(C)c4cc(OC)c([C@@]5(C(=O)OC)CC6CN(CCc7c5[nH]c5ccccc75)CC(O)(CC)C6)cc4[C@@]12CC3 (stereo partly specified)
[1]
  AC50: 35.5 µM (inconclusive)

## Cc1ccc(C(=O)n2cnnc2N)cc1
Prothrombin
  IC50: 4.05 µM (active)
[2]
  EC50: > 260 µM (inactive)

## Cc1ccc(Nc2cc(C)c3c(O)cccc3n2)cc1C
HeLa
  AC50: 34.5 µM (active)
[3]
  EC50: 2.81 µM (active)
[4]
  EC50: > 30 µM (not active)

## C/C(=N\Nc1ccc(Cl)c(C(=O)O)c1)c1cccc([N+](=O)[O-])c1
Prothrombin
  IC50: > 50 µM (not active)

## CCOC(=O)Cc1ccc(NS(=O)(=O)c2ccc(SC)cc2)cc1
Estrogen receptor
  IC50: > 50 µM (not active)

## O=S(=O)(/N=C(/Sc1ccccc1)c1ccccc1)c1ccccc1
Estrogen receptor
  IC50: 10.2 µM (active)
[5]
  IC50: > 66 µM (inactive)
[6]
  IC50: > 66 µM (inactive)

## CCOC(=O)C1=C(C)N=c2s/c(=C\c3ccc(O)c([N+](=O)[O-])c3)c(=O)n2C1c1ccccc1OC (stereo unspecified)
Streptokinase A
  EC50: 20.4 µM (active)
[7]
  EC50: 7.08 µM (active)
[8]
  AC50: > 20 µM (inactive)
Streptococcus
  EC50: 31.3 µM (active)

## COc1ccc(S(=O)(=O)N(C)C[C@@H]2OCc3cnnn3CCCC(=O)N([C@@H](C)CO)C[C@H]2C)cc1
[9]
  AC50: 2.36 µM (active)
[10]
  AC50: > 52 µM (inactive)
[11]
  AC50: > 52 µM (inactive)
[12]
  AC50: 1.75 µM (active)

## C1=C(c2cc3ccccc3cn2)CCCC1
HeLa
  AC50: 51.3 µM (active)

## O=C(O)c1ccc(/C=N/NC(=O)c2ccc(F)cc2)cc1
Prothrombin
  IC50: > 50 µM (not active)
